According to US7973218B2, “Methods and compositions for controlling weeds” (Pioneer Hi-Bred International, Inc., priority 2005, dated 2011):
Read-outs that look alike come from different tables or passages of the source.

Experiments:
[1] = test system: Parent elite stiff stalk inbred corn; assay: Postemergence herbicide application to potted corn (fresh weight, visual injury); type: in vivo; details: for Fresh Weight: weighed 2 weeks after treatment, untreated 76.4 g; for % Visual Injury / % visual injury to corn at 200 g/ha: 0% no injury, 100% plant death
[2] = test system: Parent elite stiff stalk inbred corn; assay: Preemergence herbicide application to potted corn (fresh weight, visual injury); type: in vivo; details: for Fresh Weight: fresh shoots weighed 4 weeks after treatment, untreated 36.7 g; for Crop visual injury at 200 g/ha: Zea mays, pre-emergence, 672 h, read-out: % Visual Injury
[3] = test system: Heterozygous GAT-HRA corn; assay: as above; type: in vivo; details: for Fresh Weight: fresh shoots weighed 4 weeks after treatment, untreated 47.0 g; for Crop visual injury at 200 g/ha: Zea mays, pre-emergence, 672 h, read-out: % Visual Injury
[4] = test system: Heterozygous GAT-HRA corn; assay: Postemergence herbicide application to potted corn (fresh weight, visual injury); type: in vivo; details: for % Visual Injury / Visual crop injury (%) at 200 g/ha: 0% no injury, 100% plant death; for Fresh Weight: weighed 2 weeks after treatment, untreated 98.8 g
GAT-HRA maize = assay: Postemergence herbicide spray of maize at V2 stage, injury evaluated 10-14 days after; type: in vivo; details: 200 g ai/ha (metsulfuron-methyl 35 g ai/ha)
Experimental: GAT-HRA maize plants were evaluated for tolerance to glyphosate and other herbicides. One protocol used in this evaluation was as follows. At the V2 stage (Ritchie and Hanway (1982), “How a corn plant develops” Spec. Rep. 48. (Coop. Ext. Ser., Iowa State Univ., Ames, Iowa)), plant heights were measured and herbicides were applied by spray application. Ten to fourteen days after the spray application, the transgenic plants were evaluated for injury symptoms and measured for plant height again in order to determine plant growth rates.
Plants were then evaluated at various times after treatment, such as 10 or 14 days after treatment. […] Leaf samples were taken from GAT-HRA plants and used in quantitative PCR analysis and other analyses to determine the number and arrangement of copies of the GAT and HRA polynucleotides that had been integrated into the plant genome.
Other protocols for evaluation included treatment with imidazolinone herbicides, such as the commercial herbicide Lightning® (a combination of imazapyr and imazethapyr), which was applied to GAT-HRA maize at the V2 leaf stage at four times the field label rate (250 g ai/ha). […] Another protocol for evaluation included treatment with imidazolinone herbicides as well as sulfonylurea and glyphosate herbicides. In these tests, GAT-HRA maize was treated with various combinations of Lightning® (imazapyr and imazethapyr), Basis® (rimsulfuron and thifensulfuron-methyl) and WeatherMAX® (glyphosate potassium salt). These herbicides were applied at the V2 stage as follows: Lightning® at twice the field label rate (1.8 oz ai/ac (133 ml ai/ha)), Basis® at twice the field label rate (0.5 oz ai/ac (36.9 ml ai/ha)) and WeatherMax® at four times the field label rate (43 oz ai/ac). Fourteen days after the treatment application, the plants were evaluated. […] “Field label rate” refers to the application rate specified on the product label. Where the application rate for a particular situation is a range of rates, as used herein, the term “field label rate” indicates the upper end of that range. […]

control maize = assay: as above; type: in vivo; details: 200 g ai/ha (metsulfuron-methyl 35 g ai/ha)
[5] = test system: non-glyphosate resistant ryegrass; assay: Control of ryegrass by glyphosate, metsulfuron-methyl and two additives; type: in vivo; details: metsulfuron-methyl (BRUSH-OFF) alone
Experimental: The example was conducted on non-glyphosate resistant ryegrass. As provided in Table 23, all treatments that included glyphosate [180 g a.i. L ha^−1 (0.5 L glyphosate (SCAT®))] plus metsulfuron-methyl (BRUSH-OFFS®) (5 and 10 g ha^−1) gave 100% control of the ryegrass.

[6] = test system: Hairy Fleabane (Conyza bonariensis), glyphosate sensitive biotype; assay: Control of hairy fleabane by glyphosate, metsulfuron-methyl and two additives; type: in vivo; details: 10-15 leaf stage, 200 L ha^−1
Experimental: This example included the same treatments as used in Example 11, except the treatments were carried out on a glyphosate sensitive biotype of Kleinskraalhans (Conyza bonariensis).

[7] = test system: Soybeans comprising the lead GAT7 event and also having HRA; assay: Greenhouse test confirming the field trial (Example 6B); type: in vivo, soybean; details: GAT/HRA Soybeans
From the text: Example 6B provides greenhouse data that confirms the field trial data provided above in Example 6A. Soybeans comprising the lead GAT7 event and also having HRA were used in the studies.

[8] = 200 g/ha, mean of four replications
[9] = preemergence, 200 g/ha, mean of four replications
[10] = preemergence, 200 g/ha, 0% no injury, 100% plant death, mean of four replications
[11] = Zea mays, post-emergence, 200 g/ha, mean of four replications
[12] = Zea mays, post-emergence, 1870 g/ha

## COC(=O)c1ccccc1S(=O)(=O)NC(=O)Nc1nc(C)cc(C)n1 [Sulfometuron-methyl, methyl 2-[[[[(4,6-dimethyl-2-pyrimidinyl)amino]carbonyl]amino]sulfonyl]-benzoate]
[1]; [8]
  Fresh Weight: 2.0 g

## COC(=O)c1cccc(C)c1S(=O)(=O)NC(=O)Nc1nc(OCC(F)(F)F)nc(N(C)C)n1 [Triflusulfuron-methyl]
[2]; [9]
  Fresh Weight: 26.3 g
[3]; [9]
  Fresh Weight: 53.5 g
[1]; [8]
  % Visual Injury: 100%
  Fresh Weight: 2.1 g
[4]; [8]
  % Visual Injury: 8%
  Fresh Weight: 110.9 g

## COC(=O)c1ccc(I)cc1S(=O)(=O)NC(=O)Nc1nc(C)nc(OC)n1 [Iodosulfuron-methyl Na^+, methyl 4-iodo-2-[[[[(4-methoxy-6-methyl-1,3,5-triazin-2-yl)amino]carbonyl]amino]sulfonyl]benzoate]
[2]; [10]
  Crop visual injury at 200 g/ha: 92%
[3]; [10]
  Crop visual injury at 200 g/ha: 5%
[1]; [8]
  Fresh Weight: 3.5 g
[1]; [11]
  % visual injury to corn at 200 g/ha: 100%
[4]; [8]
  Fresh Weight: 95.0 g
[4]; [11]
  Visual crop injury (%) at 200 g/ha: 1%

## CP(=O)(O)CCC(N)C(=O)O (centres unmarked) [Glufosinate ammonium]
[1]; 1870 g/ha
  Fresh Weight: 2.4 g
[1]; [12]
  % visual injury to corn at 1870 g/ha: 99%
[4]; 1870 g/ha
  Fresh Weight: 112.3 g
[4]; [12]
  Visual crop injury (%) at 1870 g/ha: 1%

## CC(C)C1(C)N=C(c2ncccc2C(=O)O)NC1=O (centres unmarked) [Imazapyr]
GAT-HRA maize
  damage from the treatment: no significant damage
Control maize
  damage from the treatment: severely damaged or killed

## COc1cc(OC)nc(Sc2cccc(Cl)c2C(=O)[O-])n1.[Na+] [Pyrithiobac Na^+]
[2]; [9]
  Fresh Weight: 0.0 g
[1]; [8]
  % Visual Injury: 100%
  Fresh Weight: 2.8 g
[4]; [8]
  % Visual Injury: 9%

## COC(=O)c1ccccc1S(=O)(=O)NC(=O)Nc1nc(C)nc(OC)n1 [Metsulfuron-methyl, methyl 2-[[[[(4-methoxy-6-methyl-1,3,5-triazin-2-yl)amino]carbonyl]amino]sulfonyl]benzoate]
GAT-HRA maize
  damage from the treatment: no significant damage
Control maize
  damage from the treatment: severely damaged or killed
[5]
  effect on its own: did nothing accept stunt the ryegrass plants slightly

## COC(=O)c1ccccc1S(=O)(=O)NC(=O)Nc1nc(C)nc(OC)n1 [Metsulfuron-methyl (BRUSH-OFF ®)]
[6]; metsulfuron-methyl (BRUSH-OFF) 5 g/ha
  Control (%): 100%
[6]; metsulfuron-methyl (BRUSH-OFF) 10 g/ha
  Control (%): 100%

## O=C(O)CNCP(=O)(O)O [glyphosate (ROUNDUP ®)]
[6]; glyphosate (ROUNDUP, 360 g a.i. L^−1) 0.5 L/ha
  Control (%): 12%

## CCOc1nc(F)cc2nc(S(=O)(=O)Nc3c(Cl)cccc3C(=O)OC)nn12 [Chloransulam-methyl, methyl 3-chloro-2-[[(5-ethoxy-7-fluoro-[1,2,4]triazolo [1,5-c]pyrimidin-2-yl)sulfonyl]amino]benzoate]
[2]; [10]
  Crop visual injury at 200 g/ha: 3%
[2]; [9]
  Fresh Weight: 5.5 g
[3]; [10]
  Crop visual injury at 200 g/ha: 3%
[1]; [8]
  Fresh Weight: 6.8 g
[1]; [11]
  % visual injury to corn at 200 g/ha: 96%
[4]; [11]
  Visual crop injury (%) at 200 g/ha: 3%

## CCc1cnc(C2=NC(C)(C(C)C)C(=O)N2)c(C(=O)O)c1 (centres unmarked) [Imazethapyr]
[7]; Rimsulfuron 0 + Imazethapyr 560 g ai/ha, Treatment # 4
  % Growth Reduction: −1%
[7]; Rimsulfuron 0 + Imazethapyr 1024 g ai/ha, Treatment # 5
  % Growth Reduction: 10%

## COC(=O)c1ccc(C(F)(F)F)nc1S(=O)(=O)NC(=O)Nc1nc(OC)cc(OC)n1 [Flupyrsulfuron-methyl Na^+, methyl 2-[[[[(4,6-dimethoxy-2-pyrimidinyl)amino]carbonyl]amino]sulfonyl]-6-(trifluoromethyl)-3-pyridinecarboxylate]
[2]; [10]
  Crop visual injury at 200 g/ha: 87%
[3]; [10]
  Crop visual injury at 200 g/ha: 90%
[1]; [8]
  Fresh Weight: 5.2 g
[1]; [11]
  % visual injury to corn at 200 g/ha: 95%
[4]; [11]
  Visual crop injury (%) at 200 g/ha: 4%

## CCCOc1nn(C(=O)NS(=O)(=O)c2ccccc2C(=O)OC)c(=O)n1C [Propoxycarbazone Na^+, methyl 2-[[[(4,5-dihydro-4-methyl-5-oxo-3-propoxy-1H-1,2,4-triazol-1-yl)carbonyl]amino]sulfonyl]benzoate]
[2]
  Crop visual injury at 200 g/ha: 100%
[2]; [9]
  Fresh Weight: 0.6 g
[3]
  Crop visual injury at 200 g/ha: 100%
[1]; [8]
  Fresh Weight: 1.9 g
[1]; [11]
  % visual injury to corn at 200 g/ha: 100%
[4]; [11]
  Visual crop injury (%) at 200 g/ha: 9%

## Imazamethabenz-methyl
[2]; [9]
  Fresh Weight: 36.2 g
[3]; [9]
  Fresh Weight: 48.5 g
[1]; [8]
  % Visual Injury: 11%
  Fresh Weight: 66.9 g
[4]; [8]
  % Visual Injury: 16%
  Fresh Weight: 95.0 g

## COc1nn(C(=O)NS(=O)(=O)c2ccccc2OC(F)(F)F)c(=O)n1C [Flucarbazone Na^+, 4,5-dihydro-3-methoxy-4-methyl-5-oxo-N-[[2-(trifluoromethoxy)phenyl]sulfonyl]-1H-1,2,4-triazole-1-carboxamide]
[2]; [10]
  Crop visual injury at 200 g/ha: 100%
[2]; [9]
  Fresh Weight: 0.0 g
[3]; [10]
  Crop visual injury at 200 g/ha: 40%
[1]; [8]
  Fresh Weight: 3.1 g
[1]; [11]
  % visual injury to corn at 200 g/ha: 100%
[4]; [8]
  Fresh Weight: 86.0 g
[4]; [11]
  Visual crop injury (%) at 200 g/ha: 14%

## CCOC(=O)c1ccccc1S(=O)(=O)NC(=O)Nc1nc(Cl)cc(OC)n1 [Chlorimuron-ethyl, ethyl 2-[[[[(4-chloro-6-methoxy-2-pyrimidinyl)amino]carbonyl]amino]sulfonyl]-benzoate]
GAT-HRA maize
  damage from the treatment: no significant damage
Control maize
  damage from the treatment: severely damaged or killed

## COc1cc(OC)nc(NC(=O)NS(=O)(=O)c2ncccc2OCC(F)(F)F)n1 [Trifloxysulfuron Na^+, N-[[(4,6-dimethoxy-2-pyrimidinyl)amino]-carbonyl]-3-(2,2,2-trifluoroethoxy)-2-pyridinesulfonamide]
[2]; [10]
  Crop visual injury at 200 g/ha: 100%
[2]; [9]
  Fresh Weight: 0.0 g
[3]; [10]
  Crop visual injury at 200 g/ha: 0%
[3]; [9]
  Fresh Weight: 50.8 g
[1]; [8]
  Fresh Weight: 1.0 g
[1]; [11]
  % visual injury to corn at 200 g/ha: 100%
[4]; [8]
  Fresh Weight: 86.6 g
[4]; [11]
  Visual crop injury (%) at 200 g/ha: 29%
